Values after ≈ are worked out from the molar mass of the structure shown.
Experiments:
Format in all cases: cell-based
[1] = test system: human gastric cancer cell MKN45; assay: Cancer cell proliferation inhibition (sulforhodamine B staining), MKN45; conditions: MKN-45, 72 hours culture with test solution, DMEM medium containing 10% fetal bovine serum
Experimental: (§1) A test compound (20 mg) was dissolved in dimethyl sulfoxide (1 ml) and successively diluted into test solutions.
(§2) DMEM medium containing 10% fetal bovine serum was used for a human gastric cancer cell MKN45 and a human colon cancer cell LS180, and […] medium containing 10% fetal bovine serum was used for human lung cancer PC13.
(§3) 100 µl portions of the cell-culturing medium containing 3×10^3 cancer cells were put in a 96-hole microplate, culture was carried out under 5% CO2 at 37°C for 24 hours, 11 µl portions of the above test solution were added, the mixtures were subjected to culture under 5% CO2 at 37°C for further 72 hours, and then the cells were fixated with 50% trichloroacetic acid and stained with 0.4% sulforhodamine B. The dye was extracted from the stained cells with 10 mM Tris solution, and absorbance at 540 nm was measured and compared with that in the control group. […]

[2] = test system: human colon cancer cell LS180; assay: Cancer cell proliferation inhibition (sulforhodamine B staining), LS180; conditions: 72 hours culture with test solution, DMEM medium containing 10% fetal bovine serum
Experimental: as §1, §2, §3

[3] = test system: human lung cancer PC13; assay: Cancer cell proliferation inhibition (sulforhodamine B staining), PC13; conditions: PC-13, 72 hours culture with test solution, RPMI-160 medium containing 10% fetal bovine serum
Experimental: as §1, §2, §3

| SMILES | IC50 [1] | IC50 [2] | IC50 [3] |
| --- | --- | --- | --- |
| O=C1NC(=O)c2c1c1c3cccc(O)c3[nH]c1c1[nH]c3c(O)cccc3c21 [BE-13793C, 12,13-dihydro-1,11-dihydroxy-5H-indolo[2,3-a]pyrrolo[3,4-c]-carbazole-5,7(6H)-dione] | > 50 µg/mL | > 50 µg/mL | 12.5 µg/mL (≈ 35 µM) |
| O=C1NC(=O)c2c1c1c3cccc(O)c3[nH]c1c1c2c2cccc(O)c2n1[C@@H]1O[C@H](CO)[C@@H](O)[C@H](O)[C@H]1O [Example 1, 12,13-dihydro-1,11-dihydroxy-13-(β-D-glucopyranosyl)-5H-indolo[2,3-a]pyrrolo[3,4-c]carbazole-5,7(6H)-dione] | 0.28 µg/mL (≈ 0.539 µM) | 1.65 µg/mL (≈ 3.18 µM) | 1.7 µg/mL (≈ 3.27 µM) |
